Patent US10750743B2, “Pyridazinone herbicides” (E.I. DU PONT DE NEMOURS AND COMPANY, priority 2015, dated 2020)

Tests used:
Type in all cases: in vivo
[1] = test system: barnyardgrass (Echinochloa crus-galli); assay: Test A preemergence, directed soil spray, visual injury rating; settings: 0 is no effect, 100 is complete control
How it was run: (§1)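 Compounds in a surfactant-containing solvent were applied as a directed soil spray preemergence, or postemergence to plants 2-10 cm tall at the one- to two-leaf stage, in loam-sand blend. After about 10 d in the greenhouse, injury was rated visually against untreated controls on a 0-100 scale (100 = complete control).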

[2] = test system: foxtail, giant (giant foxtail, Setaria faberii); assay: as above; settings: 0 is no effect, 100 is complete control
How it was run: as §1

kochia (Kochia scoparia) [3] = assay: as above; settings: 0 is no effect, 100 is complete control
How it was run: as §1

[4] = test system: pigweed (Amaranthus retroflexus); assay: as above; settings: 0 is no effect, 100 is complete control
How it was run: as §1

[5] = test system: ragweed (common ragweed, Ambrosia elatior); assay: as above; settings: 0 is no effect, 100 is complete control
How it was run: as §1

[6] = test system: ryegrass, It. (Italian ryegrass, Lolium multiflorum); assay: as above; settings: 0 is no effect, 100 is complete control
How it was run: as §1

[7] = test system: barnyardgrass (Echinochloa crus-galli); assay: Test B flooded paddy test, visual rating; settings: Flood, 250 g ai/ha, applied to paddy water, rated after 13 to 15 d
How it was run: (§2)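 Plants grown to the 2-leaf stage. At treatment, pots were flooded to 3 cm above the soil, compound was applied directly to the paddy water, and that depth was held throughout. After 13 to 15 d in the greenhouse, response was rated visually against controls on a 0 (no effect) to 100 (complete control) scale.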

[8] = test system: ducksalad (Heteranthera limosa); assay: Test B flooded paddy test, visual rating; settings: Flood, 250 g ai/ha, applied to paddy water, rated after 13 to 15 d
How it was run: as §2

rice (Oryza sativa) = assay: Test B flooded paddy test, visual rating; settings: Flood, 250 g ai/ha, applied to paddy water, rated after 13 to 15 d
How it was run: as §2

[9] = test system: sedge, umbrella (small-flower umbrella sedge, Cyperus difformis); assay: Test B flooded paddy test, visual rating; settings: Flood, 250 g ai/ha, applied to paddy water, rated after 13 to 15 d
How it was run: as §2

[10] = test system: barnyardgrass (Echinochloa crus-galli); assay: Test A postemergence application, visual injury rating; settings: 0 to 100 scale, 0 no effect, 100 complete control
How it was run: as §1

[11] = test system: blackgrass (Alopecurus myosuroides); assay: as above; settings: 0 to 100 scale, 0 no effect, 100 complete control
How it was run: as §1

corn (Zea mays) = assay: as above; settings: for Plant response rating (0 to 100 scale), Corn: 31 g ai/ha, 0 is no effect, 100 is complete control; for Corn plant response rating: 125 g ai/ha, 0 to 100 scale, 0 no effect, 100 complete control
How it was run: as §1

[12] = test system: foxtail, giant (giant foxtail, Setaria faberii); assay: as above; settings: for Plant response rating (0 to 100 scale), Foxtail, Giant: 31 g ai/ha, 0 is no effect, 100 is complete control; for Foxtail, Giant plant response rating: 125 g ai/ha, 0 to 100 scale, 0 no effect, 100 complete control
How it was run: as §1

[13] = test system: galium (catchweed bedstraw, Galium aparine); assay: as above; settings: for Plant response rating (0 to 100 scale), Galium: 31 g ai/ha, 0 is no effect, 100 is complete control; for Galium plant response rating: 125 g ai/ha, 0 to 100 scale, 0 no effect, 100 complete control
How it was run: as §1

kochia (Kochia scoparia) [14] = assay: as above; settings: for Plant response rating (0 to 100 scale), Kochia: 31 g ai/ha, 0 is no effect, 100 is complete control; for Kochia plant response rating: 125 g ai/ha, 0 to 100 scale, 0 no effect, 100 complete control
How it was run: as §1

[15] = test system: pigweed (Amaranthus retroflexus); assay: as above; settings: for Plant response rating (0 to 100 scale), Pigweed: 31 g ai/ha, 0 is no effect, 100 is complete control; for Pigweed plant response rating: 125 g ai/ha, 0 to 100 scale, 0 no effect, 100 complete control
How it was run: as §1

[16] = test system: ragweed (common ragweed, Ambrosia elatior); assay: as above; settings: for Plant response rating (0 to 100 scale), Ragweed: 31 g ai/ha, 0 is no effect, 100 is complete control; for Ragweed plant response rating: 125 g ai/ha, 0 to 100 scale, 0 no effect, 100 complete control
How it was run: as §1

[17] = test system: ryegrass, It. (Italian ryegrass, Lolium multiflorum); assay: as above; settings: for Plant response rating (0 to 100 scale), Ryegrass, It.: 31 g ai/ha, 0 is no effect, 100 is complete control; for Ryegrass, It. plant response rating: 125 g ai/ha, 0 to 100 scale, 0 no effect, 100 complete control
How it was run: as §1

[18] = test system: wheat (Triticum aestivum); assay: as above; settings: for Plant response rating (0 to 100 scale), Wheat: 31 g ai/ha, 0 is no effect, 100 is complete control; for Wheat plant response rating: 125 g ai/ha, 0 to 100 scale, 0 no effect, 100 complete control
How it was run: as §1

SMILES: CC(=O)Oc1c(C)nn(C)c(=O)c1-c1ccc(Cl)c2sccc12 [Compound 60]
- Plant response rating (0 to 100 scale), Barnyardgrass ([1]; 31 g ai/ha): 0
- Plant response rating (0 to 100 scale), Barnyardgrass ([1]; 125 g ai/ha): 0
- Plant response rating (0 to 100 scale), Foxtail, Giant ([2]; 31 g ai/ha): 0
- Plant response rating (0 to 100 scale), Foxtail, Giant ([2]; 125 g ai/ha): 0
- Plant response rating (0 to 100 scale), Kochia (kochia (Kochia scoparia) [3]; 31 g ai/ha): 0
- Plant response rating (0 to 100 scale), Kochia (kochia (Kochia scoparia) [3]; 125 g ai/ha): 0
- Plant response rating (0 to 100 scale), Pigweed ([4]; 31 g ai/ha): 0
- Plant response rating (0 to 100 scale), Pigweed ([4]; 125 g ai/ha): 100
- Plant response rating (0 to 100 scale), Ragweed ([5]; 31 g ai/ha): 0
- Plant response rating (0 to 100 scale), Ragweed ([5]; 125 g ai/ha): 0
- Plant response rating (0 to 100 scale), Ryegrass, It. ([6]; 31 g ai/ha): 0
- Plant response rating (0 to 100 scale), Ryegrass, It. ([6]; 125 g ai/ha): 10
- Barnyardgrass plant response rating (0 to 100 scale, 0 is no effect, 100 is complete control) [7]: 0
- Ducksalad plant response rating (0 to 100 scale, 0 is no effect, 100 is complete control) [8]: 0
- Rice plant response rating (0 to 100 scale, 0 is no effect, 100 is complete control) (rice (Oryza sativa)): 0
- Sedge, Umbrella plant response rating (0 to 100 scale, 0 is no effect, 100 is complete control) [9]: 0
- Barnyardgrass plant response rating ([10]; 31 g ai/ha): 0
- Barnyardgrass plant response rating ([10]; 125 g ai/ha): 0
- Blackgrass plant response rating ([11]; 31 g ai/ha): 0
- Blackgrass plant response rating ([11]; 125 g ai/ha): 0
- Plant response rating (0 to 100 scale), Corn (corn (Zea mays)): 0
- Corn plant response rating (corn (Zea mays)): 0
- Plant response rating (0 to 100 scale), Foxtail, Giant [12]: 0
- Foxtail, Giant plant response rating [12]: 0
- Plant response rating (0 to 100 scale), Galium [13]: 20
- Galium plant response rating [13]: 100
- Plant response rating (0 to 100 scale), Kochia (kochia (Kochia scoparia) [14]): 20
- Kochia plant response rating (kochia (Kochia scoparia) [14]): 70
- Plant response rating (0 to 100 scale), Pigweed [15]: 0
- Pigweed plant response rating [15]: 30
- Plant response rating (0 to 100 scale), Ragweed [16]: 0
- Ragweed plant response rating [16]: 0
- Plant response rating (0 to 100 scale), Ryegrass, It. [17]: 0
- Ryegrass, It. plant response rating [17]: 10
- Plant response rating (0 to 100 scale), Wheat [18]: 0
- Wheat plant response rating [18]: 0

SMILES: Cc1nn(C)c(=O)c(-c2ccc(Cl)c3sccc23)c1O [Compound 63]
- Plant response rating (0 to 100 scale), Barnyardgrass ([1]; 31 g ai/ha): 0
- Plant response rating (0 to 100 scale), Barnyardgrass ([1]; 125 g ai/ha): 0
- Plant response rating (0 to 100 scale), Foxtail, Giant ([2]; 31 g ai/ha): 0
- Plant response rating (0 to 100 scale), Foxtail, Giant ([2]; 125 g ai/ha): 0
- Plant response rating (0 to 100 scale), Kochia (kochia (Kochia scoparia) [3]; 31 g ai/ha): 10
- Plant response rating (0 to 100 scale), Kochia (kochia (Kochia scoparia) [3]; 125 g ai/ha): 20
- Plant response rating (0 to 100 scale), Pigweed ([4]; 31 g ai/ha): 0
- Plant response rating (0 to 100 scale), Pigweed ([4]; 125 g ai/ha): 0
- Plant response rating (0 to 100 scale), Ragweed ([5]; 31 g ai/ha): 0
- Plant response rating (0 to 100 scale), Ragweed ([5]; 125 g ai/ha): 0
- Plant response rating (0 to 100 scale), Ryegrass, It. ([6]; 31 g ai/ha): 0
- Plant response rating (0 to 100 scale), Ryegrass, It. ([6]; 125 g ai/ha): 20
- Barnyardgrass plant response rating (0 to 100 scale, 0 is no effect, 100 is complete control) [7]: 0
- Ducksalad plant response rating (0 to 100 scale, 0 is no effect, 100 is complete control) [8]: 0
- Rice plant response rating (0 to 100 scale, 0 is no effect, 100 is complete control) (rice (Oryza sativa)): 0
- Sedge, Umbrella plant response rating (0 to 100 scale, 0 is no effect, 100 is complete control) [9]: 0
- Barnyardgrass plant response rating ([10]; 31 g ai/ha): 0
- Barnyardgrass plant response rating ([10]; 125 g ai/ha): 0
- Blackgrass plant response rating ([11]; 31 g ai/ha): 0
- Blackgrass plant response rating ([11]; 125 g ai/ha): 0
- Plant response rating (0 to 100 scale), Corn (corn (Zea mays)): 0
- Corn plant response rating (corn (Zea mays)): 0
- Plant response rating (0 to 100 scale), Foxtail, Giant [12]: 0
- Foxtail, Giant plant response rating [12]: 0
- Plant response rating (0 to 100 scale), Galium [13]: 30
- Galium plant response rating [13]: 90
- Plant response rating (0 to 100 scale), Kochia (kochia (Kochia scoparia) [14]): 0
- Kochia plant response rating (kochia (Kochia scoparia) [14]): 60
- Plant response rating (0 to 100 scale), Pigweed [15]: 0
- Pigweed plant response rating [15]: 50
- Plant response rating (0 to 100 scale), Ragweed [16]: 0
- Ragweed plant response rating [16]: 0
- Plant response rating (0 to 100 scale), Ryegrass, It. [17]: 0
- Ryegrass, It. plant response rating [17]: 10
- Plant response rating (0 to 100 scale), Wheat [18]: 0
- Wheat plant response rating [18]: 0
